Test results reported in patent publication US20180231561A1, “METHODS FOR TREATING SOLID TUMORS AND THE USE OF BIOMARKERS AS A PREDICTOR OF CLINICAL SENSITIVITY TO IMMUNOMODULATORY THERAPIES” (CELGENE CORPORATION, priority 2015, published 2018).
“Also recorded” adds a separate entry of the source. Where a SMILES comes first, the peptide text is derived from it. The star is where a group is joined. Cbz = O=C(OCc1ccccc1)*

How the values were obtained:
Hep3B cells = experiment: Growth response of Hep3B cells to treatment compounds (FIG. 6B); type: cell-based, human
ZFP91 [1] = experiment: Western blot of ZFP91 protein level in HCC cell lines Focus and JHH4; type: cell-based; details: for effect on Compound A-induced ZFP91 degradation: Focus and JHH4, 2D, 10 μM for 1 hour, then 5 μM Compound A for 6 hours
Procedure: (§1) Both HCC cells, Focus and JHH4 in 3D setting, were cultured continuously for 15 days treated with either DMSO or Compound A, or were first cultured for about 7 days prior to treatment with either DMSO or Compound A for 24 hours or 72 hours. Cells were harvested and proteins were prepared from the cells for proteomics analysis. The growth of the cells on control plates was also analyzed. In particular, cells were plated in media containing either DMSO or Compound A. Cells were cultured for certain time, and then were harvested onto filter plates. After the plates have dried, scintillation fluid was added to the plates and read on a Top-count reader.
Focus cells were cultured for 18 days either continuously for 18 days in the medium containing DMSO, Compound A, or Compound B, or cultured for 7 days prior to treating with DMSO, Compound A, or Compound B for 11 days. Then cells were harvested and were treated in 200 μl cold cell lysis buffer (1% Triton X-100 from Cell Signaling supplemented with protease inhibitors and phophatase inhibitors from Roche) to generate cell lysate. Proteins from cell lysate were separated by 4-12% nupage gels (Invitrogen) and transferred to nitrocellulose membranes. Immunoblots were then probed with antibodies recognizing CRBN, ZFP91 (LSBio) and β-actin (Li-Cor). Signals were detected with a Li-Cor Odyssey Imager. As shown, the level of ZFP91 reduced in response to treatment with Compound A or Compound B.
(§2) HCC cells from both Focus and JHH4 cell lines in 2D setting treated with Compound A for 6 hours, 24 hours, and 72 hours, and JHH4 cells in 3D setting treated with Compound A for 15 days were also analyzed by western blot. Cells were harvested and were treated in 200 μl cold cell lysis buffer (1% Triton X-100 from Cell Signaling supplemented with protease inhibitors and phophatase inhibitors from Roche) to generate cell lysate. Proteins from cell lysate were separated by 4-12% Nupage gels (Invitrogen) and transferred to nitrocellulose membranes. Immunoblots were then probed with antibodies recognizing CRBN, ZFP91 (LSBio), P-TBK1, and β-actin (Li-Cor). Signals were detected with a Li-Cor Odyssey Imager. As shown, the level of ZFP91 reduced in response to treatment with Compound A for 6 hours, 24 hours, or 72 hours in both cell lines in 2D setting. […] The level of CRBN increased in response to treatment with Compound A for 6 hours, 24 hours, or 72 hours in both cell lines in 2D setting. […] ZFP91 degradation induced by various doses of Compound A for various time periods was also tested in both Focus and JHH4 cells, as shown in FIG. 4C.
HCC cells from both Focus and JHH4 cell lines in 2D setting were first treated with 10 μM MG132 or MLN4924 for 1 hour, and then were treated with 5 μM DMSO or 5 μM Compound A for 6 hours. Cells were harvested and were treated in cell lysis buffer to generate cell lysate. Proteins from cell lysate were separated by gel electrophoresis and transferred to nitrocellulose membranes. Immunoblots were then probed with antibodies recognizing CRBN, ZFP91 (LSBio), and β-actin (Li-Cor). The results were shown in FIG. 5A, and as shown, both […] or MLN4924 inhibited ZFP91 degradation. MG132 activates c-Jun N-terminal kinase (JNK1), which initiates apoptosis. […] MLN4924 is a NAE1 inhibitor that blocks the activity of Cullin Ring Ligases (CRLs), such as CRL4CRBN.

ZFP91 [2] = experiment: as above; type: cell-based; details: for effect of the compound on ZFP91 after knocking down of CRBN: CRBN knockdown, Focus and JHH4 cells
ZFP91 [3] = experiment: Western blot of ZFP91 level in Hep3B cells; type: cell-based, human
Procedure: The change of ZFP91 level in response to Compound A or Compound B treatments was also evaluated in human hepatoma Hep3B cell lines. Hep3B cells were treated with Compound A or Compound B, and cells were harvested and treated in lysis buffer to generate cell lysate. Proteins from cell lysate were separated by electrophoresis gel and transferred to nitrocellulose membranes. Immunoblots were then probed with antibodies recognizing CRBN, ZFP91, and β-actin. Signals were detected with a Li-Cor Odyssey Imager. The results were shown in the upper panel of FIG. 6A. […] Thus, ZFP91 may be degraded in response treatment compounds regardless of growth response of the cells to the treatment compounds.

Focus cells = experiment: Colony growth on control plates, 3D Focus cells; type: cell-based; details: vs DMSO
CRBN [4] = experiment: Western blot of CRBN protein level in HCC cell lines Focus and JHH4; type: cell-based
Procedure: as §2, with “Both HCC cells, Focus and JHH4 in 3D setting, were cultured continuously for 15 days treated with either DMSO or Compound A, or were first cultured for about 7 days prior to treatment with either DMSO or Compound A for 24 hours or 72 hours. Cells were harvested and proteins were prepared from the cells for proteomics analysis. The growth of the cells on control plates was also analyzed. In particular, cells were plated in media containing either DMSO or Compound A. Cells were cultured for certain time, and then were harvested onto filter plates. After the plates have dried, scintillation fluid was added to the plates and read on a Top-count reader. HCC” for “HCC”

ZFP91 [5] = experiment: Immunostaining of ZFP91 in U87 xenograft tissue; type: in vivo
JHH4 cell line = experiment: Proteomic screening in JHH4 cell line under 3D culture; type: cell-based
Procedure: as §1

FOCUS cell line = experiment: Proteomic screening in FOCUS cell line under 3D culture; type: cell-based; details: 3D conditions
Procedure: as §1

[6] = tested on: HCC xenografts (excised xenograft tumors of HAK-1AJ and Focus); experiment: Proteomic screening (TMT) of HCC xenografts treated with DMSO or Compound A; type: cell-based
Procedure: HCC xenografts (excised xenograft tumors of HAK-1AJ and Focus) were treated with either with DMSO, or Compound A for either once (single) or multiple times. Cells were harvested at 24 or 72 hours time points, and proteins were fractionated using a basic pH reverse gradient method. Fractionated samples were labeled using a Tandem Mass Tag (TMT) method. Relative abundance was calculated.

U87 tumor = experiment: U87 xenograft tumor growth; type: in vivo; details: 3 and 30 mg/kg qd
JHH4 cells = experiment: Colony growth on control plates, 3D JHH4 cells; type: cell-based; details: 3D JHH4, control plates, vs DMSO
P-TBK1 = experiment: Western blot of P-TBK1 in HCC cells; type: cell-based; details: 3D setting
Procedure: as §2

[7] = tested on: MST1R (RON), PARP4, MVP, ZFP91, IKBKE, PDE6D, CK1alpha, LGALS2, KAT1, GSPT1, CRBN; experiment: Western blot confirmation of proteins identified in the proteomic studies (FIG. 8); type: cell-based
Text: Representative proteins identified in the proteomic studies were confirmed in western blot analysis, such as those shown in FIG. 8.

ZFP91 [8] = experiment: Western blot of ZFP91 level in glioblastoma cell lines U87 and SNB19; type: cell-based, human; details: U87 and SNB19 cells
Procedure: The change of ZFP91 level in response to treatment compounds was evaluated in other solid tumor cell lines, e.g., glioblastoma (GBM) cell lines. […] Proteins from cell lysate were separated by electrophoresis gel and transferred to nitrocellulose membranes. Immunoblots were then probed with antibodies recognizing ZFP91 and β-actin. Signals were detected with a Li-Cor Odyssey Imager.

CRBN [9] = molecular target: CRBN (Homo sapiens, UniProt Q96SW2); details: in vitro; cited from earlier work
Chain of CRBN (Homo sapiens, UniProt Q96SW2) (Q96SW2 whole entry, species assumed): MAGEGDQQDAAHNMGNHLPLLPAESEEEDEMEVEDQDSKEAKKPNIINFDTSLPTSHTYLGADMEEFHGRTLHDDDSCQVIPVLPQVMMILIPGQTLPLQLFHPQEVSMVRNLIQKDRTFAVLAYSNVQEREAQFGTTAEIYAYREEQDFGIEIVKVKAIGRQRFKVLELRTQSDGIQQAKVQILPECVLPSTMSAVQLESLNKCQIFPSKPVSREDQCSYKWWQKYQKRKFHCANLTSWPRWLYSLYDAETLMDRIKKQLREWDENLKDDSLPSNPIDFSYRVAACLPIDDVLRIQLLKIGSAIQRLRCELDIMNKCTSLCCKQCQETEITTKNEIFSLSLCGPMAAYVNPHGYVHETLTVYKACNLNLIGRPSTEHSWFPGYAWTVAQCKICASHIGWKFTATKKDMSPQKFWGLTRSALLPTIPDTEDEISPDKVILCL
Chain of CRBN (Homo sapiens, UniProt Q96SW2) (Q16531 whole entry partner, species assumed): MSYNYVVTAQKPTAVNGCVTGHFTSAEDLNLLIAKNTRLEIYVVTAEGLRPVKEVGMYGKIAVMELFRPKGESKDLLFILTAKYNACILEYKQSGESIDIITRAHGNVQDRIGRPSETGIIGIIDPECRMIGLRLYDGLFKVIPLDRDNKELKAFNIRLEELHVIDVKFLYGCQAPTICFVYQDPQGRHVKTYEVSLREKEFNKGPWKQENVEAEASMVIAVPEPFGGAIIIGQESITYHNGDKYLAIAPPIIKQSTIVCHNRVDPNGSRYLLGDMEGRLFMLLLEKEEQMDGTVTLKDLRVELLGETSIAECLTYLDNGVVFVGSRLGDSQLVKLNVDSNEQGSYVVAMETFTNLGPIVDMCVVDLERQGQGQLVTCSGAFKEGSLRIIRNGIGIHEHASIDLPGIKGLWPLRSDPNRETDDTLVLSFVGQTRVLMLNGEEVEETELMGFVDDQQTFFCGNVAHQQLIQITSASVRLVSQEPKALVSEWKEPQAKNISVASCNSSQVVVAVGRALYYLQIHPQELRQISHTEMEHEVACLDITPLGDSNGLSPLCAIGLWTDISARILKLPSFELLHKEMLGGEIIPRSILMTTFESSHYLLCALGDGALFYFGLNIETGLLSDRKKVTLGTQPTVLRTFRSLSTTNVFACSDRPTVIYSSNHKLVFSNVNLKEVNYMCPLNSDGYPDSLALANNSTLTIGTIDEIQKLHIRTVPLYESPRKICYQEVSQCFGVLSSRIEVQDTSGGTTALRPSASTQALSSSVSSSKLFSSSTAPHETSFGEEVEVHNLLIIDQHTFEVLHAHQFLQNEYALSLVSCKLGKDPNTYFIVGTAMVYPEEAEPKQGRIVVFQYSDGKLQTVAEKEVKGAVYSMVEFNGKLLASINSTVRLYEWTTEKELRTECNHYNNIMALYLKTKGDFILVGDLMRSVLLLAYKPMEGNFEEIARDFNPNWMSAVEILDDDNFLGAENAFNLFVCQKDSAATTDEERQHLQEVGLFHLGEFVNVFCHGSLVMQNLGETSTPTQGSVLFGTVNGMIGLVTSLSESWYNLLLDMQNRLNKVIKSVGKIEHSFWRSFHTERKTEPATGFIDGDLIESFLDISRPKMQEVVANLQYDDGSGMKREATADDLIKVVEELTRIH
Chain of CRBN (Homo sapiens, UniProt Q96SW2) (Q13619 whole entry partner, species assumed): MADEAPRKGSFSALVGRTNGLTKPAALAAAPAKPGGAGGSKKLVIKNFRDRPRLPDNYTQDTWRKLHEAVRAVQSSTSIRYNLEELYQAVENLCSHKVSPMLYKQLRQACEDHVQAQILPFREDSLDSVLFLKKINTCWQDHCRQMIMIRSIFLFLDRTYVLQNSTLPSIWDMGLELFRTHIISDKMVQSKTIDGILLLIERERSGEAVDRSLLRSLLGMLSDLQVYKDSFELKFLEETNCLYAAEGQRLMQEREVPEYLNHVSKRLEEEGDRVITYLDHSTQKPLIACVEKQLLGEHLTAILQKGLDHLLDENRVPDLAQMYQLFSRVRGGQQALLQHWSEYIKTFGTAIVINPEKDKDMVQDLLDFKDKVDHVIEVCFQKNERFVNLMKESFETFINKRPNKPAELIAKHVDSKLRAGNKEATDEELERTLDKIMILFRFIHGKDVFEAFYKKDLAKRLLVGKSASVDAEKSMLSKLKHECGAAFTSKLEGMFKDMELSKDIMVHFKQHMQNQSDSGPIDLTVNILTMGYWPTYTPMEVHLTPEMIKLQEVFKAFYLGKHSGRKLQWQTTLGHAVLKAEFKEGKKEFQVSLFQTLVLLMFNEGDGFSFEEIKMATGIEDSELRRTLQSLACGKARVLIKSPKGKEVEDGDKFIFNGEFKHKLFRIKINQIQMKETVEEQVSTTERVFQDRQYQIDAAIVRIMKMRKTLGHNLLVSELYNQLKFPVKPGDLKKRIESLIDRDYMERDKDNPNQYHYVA
Chain of CRBN (Homo sapiens, UniProt Q96SW2) (P62877 whole entry partner, species assumed): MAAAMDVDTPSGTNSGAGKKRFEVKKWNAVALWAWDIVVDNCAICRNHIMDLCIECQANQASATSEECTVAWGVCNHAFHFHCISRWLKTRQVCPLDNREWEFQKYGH

NF-κB = details: read-out: IC50 NF-κB activation; cited from earlier work
[10] = Focus cells, 18 days continuous, or 7 days culture then 11 days treatment
[11] = Focus and JHH4, 2D setting, 6 hours, 24 hours or 72 hours
[12] = Focus and JHH4, 3D, control plate and proteomic preparation, beta-actin control

O=C1CCC(N2Cc3c(OCc4ccc(CN5CCOCC5)cc4)cccc3C2=O)C(=O)N1 (centres unmarked) [Compound B, 3-[4-(4-Morpholin-4-ylmethyl-benzyloxy)-1-oxo-1,3-dihydro-isoindol-2-yl]-piperidine-2,6-dione]
sensitivity of Hep3B cells to the compound (Hep3B cells): sensitive | level of ZFP91 (ZFP91 [1]; [10]): reduces | effect of the compound on ZFP91 after knocking down of CRBN (ZFP91 [2]): reversed | ZFP91 level (ZFP91 [3]): down-regulated

Cc1nc2cccc(N)c2c(=O)n1C1CCC(=O)NC1=O (centres unmarked) [Compound A, 3-(5-amino-2-methyl-4-oxo-4H-quinazolin-3-yl)-piperidine-2,6-dione]
sensitivity of Hep3B cells to the compound (Hep3B cells): not | colony number (Focus cells): reduced | total colony area (Focus cells): reduced | level of CRBN (CRBN [4]; [11]): increases | level of CRBN protein (CRBN [4]; [12]): increased | level of CRBN (CRBN [4]; JHH4, 3D setting, 15 days): increased | level of ZFP91 (ZFP91 [1]; [11]): reduces | level of ZFP91 protein (ZFP91 [1]; [12]): reduced | level of ZFP91 (ZFP91 [1]; [10]): reduces | level of ZFP91 (ZFP91 [1]; JHH4, 3D setting, 15 days): reduced | ZFP91 in U87 xenograft tissue (ZFP91 [5]): degrades | regulation of the proteins listed in Table 5 (JHH4 cell line; JHH4, 3D conditions): downregulated | regulation of the proteins listed in Table 3 (JHH4 cell line; JHH4, 3D culture, basement membrane extracellular matrix): upregulated | regulation of the proteins listed in Table 4 (FOCUS cell line): upregulated | regulation of the proteins listed in Table 6 (FOCUS cell line): downregulated | effect of the compound on ZFP91 after knocking down of CRBN (ZFP91 [2]): reversed | level of ZFP91 under protein synthesis inhibition (ZFP91 [2]; Focus and JHH4 cells treated with 100 ug/ml cycloheximide (CHX)): decreased; also recorded: accelerates | ZFP91 level (ZFP91 [3]): down-regulated | proteins commonly differentially abundant after treatment ([6]; 24 hours after treatment, both Focus and HAK-1AJ, compared with DMSO): WIBG, KAT1, Nestin, PARP4, and MVP | proteins downregulated in response to treatment ([6]; proteomic screening study): MVP, PARP4, ZFP91, and ZNF198 | proteins upregulated in response to treatment ([6]; proteomic screening study): Nestin, KAT1/CCBL1, and WIBG; also recorded: Nestin, KAT1/CCBL1, WIBG, CK1-alpha, GSPT1 | U87 tumor growth (U87 tumor): significantly inhibits | colony number (JHH4 cells): reduced | total colony area (JHH4 cells): reduced | P-TBK1 level (P-TBK1): upregulated | proteins whose levels increased in response to treatment [7]: CK1alpha, LGALS2, KAT1, GSPT1 as well as CRBN | proteins whose levels reduced in response to treatment [7]: MST1R (RON), RARP4, MVP, ZFP91, IKBKE, PDE6D | ZFP91 level (ZFP91 [8]): down-regulated

O=C1CCC(N2C(=O)c3ccccc3C2=O)C(=O)N1 (centres unmarked) [thalidomide, 2-(2,6-dioxopiperidin-3-yl)-1H-isoindole-1,3(2H)-dione]
auto-ubiquitination of CRBN (CRBN [9]): inhibit

CC(C)C[C@@H](C=O)NC(=O)[C@H](CC(C)C)NC(=O)[C@H](CC(C)C)NC(=O)OCc1ccccc1 [MG132, reference compound] (Cbz-Leu-Leu-Leu-aldehyde)
effect on Compound A-induced ZFP91 degradation (ZFP91 [1]): inhibited; also recorded: block | IC50 (NF-κB): 3000 nM | effect on reduction of ZFP91 by Compound A or Compound B (ZFP91 [3]): blocked | effect on reduction of ZFP91 by treatment compounds (ZFP91 [8]): blocked

NS(=O)(=O)OC[C@@H]1C[C@@H](n2ccc3c(N[C@H]4CCc5ccccc54)ncnc32)C[C@@H]1O [MLN4924, reference compound]
effect on Compound A-induced ZFP91 degradation (ZFP91 [1]): inhibited | effect on Compound A-induced ZFP91 degradation (ZFP91 [1]; listed as MLN): block | effect on reduction of ZFP91 by Compound A or Compound B (ZFP91 [3]): blocked | effect on reduction of ZFP91 by treatment compounds (ZFP91 [8]): blocked
